# According to patent US8921576B2, “Spiroindoline compound, and medicinal agent comprising same” (Kowa Company, Ltd., priority 2011, dated 2014):
# Target: T1, GST-GK derived from human liver GK (Homo sapiens, UniProt P35557)
# T1 construct: made in house; host or cells: Escherichia coli DH5α
# T1 sequence (P35557 1-466 isoform P35557-2): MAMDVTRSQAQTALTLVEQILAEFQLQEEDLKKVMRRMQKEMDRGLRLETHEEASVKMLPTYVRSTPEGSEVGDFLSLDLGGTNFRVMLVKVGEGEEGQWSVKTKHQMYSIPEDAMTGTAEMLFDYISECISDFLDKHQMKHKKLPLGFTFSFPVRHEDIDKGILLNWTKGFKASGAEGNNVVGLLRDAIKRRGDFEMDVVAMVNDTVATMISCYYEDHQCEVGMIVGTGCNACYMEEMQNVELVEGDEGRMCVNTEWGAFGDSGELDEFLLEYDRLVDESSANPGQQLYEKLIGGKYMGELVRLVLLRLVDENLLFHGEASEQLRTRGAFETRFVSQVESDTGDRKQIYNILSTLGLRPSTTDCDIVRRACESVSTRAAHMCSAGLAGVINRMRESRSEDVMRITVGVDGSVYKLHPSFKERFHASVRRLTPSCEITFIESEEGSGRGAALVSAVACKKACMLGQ
# Assay: In vitro GK activity measurement test (G6PDH-coupled, OD340)
# Assay type: biochemical
# Details: test compound 1 μmol/L; glucose 2.5 mmol/L; 25° C.; OD340 slope with compound / without compound; read-out: GK activation rate (%)
# Description: cDNA (GenBank Accession No. NM_033507, human glucokinase, variant 2) encoding human liver-type GK polypeptide was cloned by performing a polymerase chain reaction (hereinafter referred to as “PCR”) using a human liver cDNA library (Human liver QUICK-Clone cDNA, TAKARA BIO INC.), and the thus cloned cDNA was then introduced into an expression vector (pGEX-3X, GE Healthcare Japan) for glutathione S transferase (hereinafter referred to as GST) fusion protein expression. The resulting vector was introduced into Escherichia coli (Competent high DH5α, Toyobo Co., Ltd.), and the transformed Escherichia coli was then cultured at 37° C. Thereafter, Isopropyl β-D-1-thiogalactopyranoside (final concentration: 1 mmol/L, Sigma Aldrich Japan) was added to the culture, and the obtained mixture was then cultured at 30° C. for 3 hours. Thereafter, a cell mass was recovered. The recovered cell mass was subjected to freezing-and-thawing, and the resulting cell mass was then suspended in phosphate buffer with final concentration of 1% Triton X-100, followed by disintegration with an ultrasonic disruptor. The homogenate was centrifuged at 33,200 rpm at 4° C. for 1 hour. Thereafter, the supernatant was recovered, and a GST-GK fusion protein was then purified using a glutathione column (GSTrap FF, GE Healthcare Japan). The obtained GST-GK fusion protein was divided into some portions each having a small volume, and the thus divided proteins were then preserved at −80° C.
# A GK assay method was carried out at 25° C. at a final incubation volume of 100 μL in a flat-bottom 96-well assay plate. An assay buffer comprised 25 mmol/L Hepes buffer (pH 7.1), 25 mmol/L KCl, 2.5 mmol/L or 10 mmol/L D-glucose, 5 mmol/L ATP, 1 mmol/L nicotinamide adenine dinucleotide phosphate (abbreviated as NADP), 2 mmol/L MgCl2, 1 mmol/L dithiothreitol (DTT), 2 units/mL glucose-6 phosphate dehydrogenase (G6PDH), and 1 μg/mL GST-GK derived from human liver GK. ATP, G6PDH, and NADP were purchased from Roche Diagnostics. […] The thus mixed solution was preincubated in an incubator in which the temperature was controlled at 25° C. for 15 minutes. Subsequently, the reaction was initiated by adding 10 μL of the GST-GK solution to the reaction mixture, resulting in a final concentration of 0.1 μg/mL. After initiation of the reaction, an increase in the optical concentration at 340 nm (OD340) was monitored with a microplate spectrophotometer (Varsamax, Molecular Devices Japan K.K.) every 10 seconds over an incubation period of 10 minutes. An inclination of the OD340 increase was defined as raw data. The GK activating rate was indicated as a numerical value obtained from the expression: (Inclination of OD340 increase by addition of the test compound)/(inclination of OD340 increase without addition of the test compound). The results of the GK activating rate obtained at a test compound concentration of 1 μmol/L under the condition of a glucose concentration of 2.5 mmol/L are shown in the following table.
row,activity at 1 µM [%],SMILES
1,520,"CNC(=O)N1CCC2(C1)CN(C(=O)Nc1ncc(OC)s1)c1ccc(C(F)(F)F)cc12 (stereo not drawn) [Example 439, N1-(5-Methoxythiazol-2-yl)-N1′-methyl-5-(trifluoromethyl)spiro[indoline-3,3′-pyrrolidine]-1,1′-dicarboxamide]"
2,454,"CCOC(=O)CCNC(=O)N1CCC2(C1)CN(C(=O)Nc1ncc(Cl)s1)c1ccc(Cl)cc12 (stereo not drawn) [Example 462, Ethyl 3-(5-chloro-1-((5-chlorothiazol-2-yl)carbamoyl)spiro[indoline-3,3′-pyrrolidin]-1′-ylcarboxamido)propionate]"
3,477,"CONC(=O)N1CCC2(C1)CN(C(=O)Nc1ncc(Cl)s1)c1ccc(Cl)cc12 (stereo not drawn) [Example 480, 5-Chloro-N1-(5-chlorothiazol-2-yl)-N1′-methoxyspiro[indoline-3,3′-pyrrolidine]-1,1′-dicarboxamide]"
4,575,"COC(=O)N1CCC2(C1)CN(C(=O)Nc1ncc(SCCCNC(=O)C3CC3)s1)c1ccc(Cl)cc12 (stereo not drawn) [Example 454, methyl 5-chloro-1-((5-((3-(cyclopropanecarboxamido)propyl)thio)thiazol-2-yl)carbamoyl)spiro[indoline-3,3′-pyrrolidine]-1′-carboxylate]"

# Further lines, the molecule ahead of its results:
row,SMILES,activity at 1 µM [%]
1,"CC(=O)N1CCC2(C1)CN(C(=O)Nc1ncc(Cl)s1)c1ccc(Br)cc12 (stereo not drawn) [Example 3, 1′-acetyl-5-bromo-N-(5-chlorothiazol-2-yl)spiro[indoline-3,3′-pyrrolidine]-1-carboxamide]",716
2,"COCCN(Cc1ccccc1)S(=O)(=O)c1ccc2c(c1)[C@@]1(CCN(C(=O)OC)C1)CN2C(=O)Nc1nc2ccc(OC)nc2s1 [Example 344, (S)-methyl 5-(N-benzyl-N-(2-methoxyethyl)sulfamoyl)-1-((5-methoxythiazolo[5,4-b]pyridin-2-yl)carbamoyl)spiro[indoline-3,3′-pyrrolidine]-1′-carboxylate]",647
3,"COC(=O)N1CCC2(C1)CN(C(=O)Nc1ncc(Cl)s1)c1ccc(Br)cc12 (stereo not drawn) [Example 13, Methyl 5-bromo-1-((5-chlorothiazol-2-yl)carbamoyl)spiro[indoline-3,3′-pyrrolidine]-1′-carboxylate]",678
4,"COC(=O)N1CC[C@@]2(C1)CN(C(=O)Nc1ncc(SCC(=O)O)s1)c1ccc(Br)cc12 [Example 336, (S)-2-((2-(5-bromo-1′-(methoxycarbonyl)spiro[indoline-3,3′-pyrrolidin]-1-ylcarboxamido)thiazol-5-yl)thio)acetic acid]",451
5,"CNC(=O)N1CCC2(C1)CN(C(=O)Nc1ncc(Cl)s1)c1ccc(C(F)(F)F)cc12 (stereo not drawn) [Example 432, N1-(5-Chlorothiazol-2-yl)-N1′-methyl-5-(trifluoromethyl)spiro[indoline-3,3′-pyrrolidine]-1,1′-dicarboxamide]",613
6,"COC(=O)N1CC[C@@]2(C1)CN(C(=O)Nc1nc3ccc(OC)nc3s1)c1ccc(S(=O)(=O)N(CCO)Cc3ccccc3)cc12 [Example 345, (S)-methyl 5-(N-benzyl-N-(2-hydroxyethyl)sulfamoyl)-1-((5-methoxythiazolo[5,4-b]pyridin-2-yl)carbamoyl)spiro[indoline-3,3′-pyrrolidine]-1′-carboxylate]",785
7,"COC(=O)N1CCC2(C1)CN(C(=O)Nc1ncc(SCCCNS(=O)(=O)C3CC3)s1)c1ccc(Cl)cc12 (stereo not drawn) [Example 179, methyl 5-chloro-1-((5-((3-(cyclopropanesulfonamido)propyl)thio)thiazol-2-yl)carbamoyl)spiro[indoline-3,3′-pyrrolidine]-1′-carboxylate]",669
8,"CN(C)CCN(Cc1ccccc1)S(=O)(=O)c1ccc2c(c1)C1(CCN(C=O)C1)CN2C(=O)Nc1ncc(F)s1 (stereo not drawn) [Example 308, 5-(N-benzyl-N-(2-(dimethylamino)ethyl)sulfamoyl)-N-(5-fluorothiazol-2-yl)-1′-formylspiro[indoline-3,3′-pyrrolidine]-1-carboxamide]",504
